Entries after “also recorded” stand apart in the source; their conditions may differ. Read-outs that look alike come from different tables or passages of the source.
Key:
[1] = system: C57BL6 mice splenic cells; assay type: cell-based, mouse
[2] = system: BALB/c mice; test: Copper cytotoxicity assessment in mice; assay type: in vivo, mouse; conditions: copper 0.2 and 0.5 μg/g, 5 times a week for 5 weeks
Experimental: To this aim, we injected a lower dose of copper (0.2 and 0.5 μg/g) 5 times a week for 5 weeks to a new series of BALB/c mice. We observed the mice every day, monitored their weight and followed their survival to evaluate copper toxicity.

[3] = system: HL60 cells; assay type: cell-based, Human
[4] = system: HL60 cells; assay type: cell-based, Human; remark: listed apart in the source
[5] = system: A20 cells; test: A20 cell viability; assay type: cell-based, mouse; conditions: 48 h; for Effect on A20 viability vs control: H2O2 experiment
Experimental: (§1) Cells (1×10^5 per well) were seeded in 96-wells round bottom plates (Falcon, Corning, reference: 353077) and incubated for 48 hours with different experimental conditions in an incubator at 37° C. 5% CO2. Two plates were prepared in parallel to measure respectively the H2O2 production and A20 cell viability.
(§2) H2O2 production, GSH production and cell viability were measured using the same protocols as above-described for […].
(§3) Conditions of Treatments and Related Experimentations: 1 Test H2O2— 1 Test GSH • H2O2 or GSH production and cell survival: As2O3 (1 μM) with CuCl2 at 0.5; 1; 2 and 4 μM.

[6] = system: chronic sclerodermatous Graft versus Host Disease
[7] = system: HL60 cells; assay type: cell-based, Human; remark: listed apart in the source
[8] = target: T1, caspase-1 (Homo sapiens, UniProt P29466); conditions: Maier et al., J. Immunol. 2014; cited from earlier work
T1 sequence (P29466 120-404): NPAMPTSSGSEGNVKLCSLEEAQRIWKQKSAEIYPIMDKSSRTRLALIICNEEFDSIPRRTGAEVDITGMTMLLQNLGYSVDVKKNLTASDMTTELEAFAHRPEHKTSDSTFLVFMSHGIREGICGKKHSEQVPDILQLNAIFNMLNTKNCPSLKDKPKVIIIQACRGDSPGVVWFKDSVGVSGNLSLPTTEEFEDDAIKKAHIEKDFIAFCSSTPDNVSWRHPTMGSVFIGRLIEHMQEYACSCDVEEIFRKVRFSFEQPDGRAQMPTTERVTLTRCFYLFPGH

[9] = system: A20 cells; test: H2O2 production in A20 cultured cells; assay type: cell-based, mouse; conditions: 48 h, As2O3 at 1 μM, test 1
Experimental: as §1, §2, §3

[10] = system: MRL/lpr mice; conditions: Bobé et al., Blood 2006; cited from earlier work
[11] = system: A20 cells; test: GSH production in A20 cultured cells; assay type: cell-based, mouse; conditions: 48 h, As2O3 at 1 μM, test 1
Experimental: as §1, §2, §3

[12] = system: Treg and T17 balance; conditions: rheumatoid arthritis patients; Li et al. 2019; cited from earlier work
[13] = Allogeneic + As2O3 2.5 μg/g, 9 mice
[14] = Allogeneic + As2O3 5 μg/g, 5 mice

[Cl][Cu][Cl] [CuCl2, copper(II) chloride]
Cell proliferation: As2O3 + cations vs As2O3 ([1]; MLR, 48 h, As2O3 1 μM, cation concentration(s) giving a significant decrease of proliferation, test 1): 4 μM (test 1) | Cell proliferation: As2O3 + cations vs As2O3 ([1]; MLR, 48 h, As2O3 1 μM, cation concentration(s) giving a significant decrease of proliferation, tests 1 and 2): 4 μM or 2 and 4 | Proliferation of C57BL6 spleen cells in the presence of AsI3: CuCl2 concentrations with significant decrease ([1]; MLR, 48 h, AsI3 1 μM, test 2): 4 µM | Death after 5 weeks [2]: no death | Mean weights vs control group receiving PBS [2]: similar | Effect on the GSH production induced by As2O3 [3]: reduce | GSH Production: cations vs control [3]: no significant effect; also recorded: Not significant | Effect of AsI3 on H2O2 production: AsI3 + CuCl2 vs AsI3 [4]: significantly increased | Effect on the H2O2 production induced by As2O3 [4]: significantly increases | H2O2 Production: cations vs control [4]: no significant effect; also recorded: Not significant | Cell survival: As2O3 + cations vs As2O3 ([5]; As2O3 1 μM (GSH experiment), CuCl2 concentration(s) giving a significant increase of viability, 1 test): 4 µM | Mortality in the copper-treated groups ([6]; copper 2.5 or 10 μg/g i.p. 5 times a week, injections stopped at the end of day 4): significant loss of mice | Mortality in the copper-treated groups ([6]; copper injected only twice a week from day 8 until the end of the 5 weeks): no more copper-treated mice died | Cell survival in presence of AsI3 [7]: no effect | Cell survival: cations vs control ([7]; HL60 cells, 48 h (GSH experiment, Example 4), concentration(s) giving a significant difference, tests 1 and 2): no significant effect; also recorded: Not significant | Cell survival: cations vs control ([7]; HL60 cells, 48 h (H2O2 experiment), cation concentration(s) giving a statistically significant difference, tests 1 and 2): no real effect; also recorded: Not significant | Cell survival: As2O3 + cations vs As2O3 ([7]; HL60 cells, 48 h, As2O3 1 μM (GSH experiment, Example 4), concentration(s) giving a significant difference, tests 1 and 2): no significant effect; also recorded: Not significant | Cell survival: As2O3 + cations vs As2O3 ([7]; HL60 cells, 48 h, As2O3 1 μM (H2O2 experiment), cation concentration(s) giving a statistically significant difference, tests 1 and 2): no real effect; also recorded: Not significant | Effect on HL60 survival in the presence of As2O3 ([7]; HL60 cells, 48 h, CuCl2 at 1 and 4 μM with As2O3 0.1-10 μM): no additional nor protective effect

O=S(=O)([O-])[O-].[Fe+2] [FeSO4]
Cell proliferation: As2O3 + cations vs As2O3 [1]: does not have a significant effect | Cell survival: As2O3 + cations vs As2O3 [7]: no significant effect; also recorded: Not significant | Cell survival: cations vs control [7]: no significant effect; also recorded: Not significant

[Cl][Mn][Cl] [MnCl2]
H2O2 Production: As2O3 + cations vs As2O3 [4]: 1 µM | H2O2 Production: cations vs control [4]: 1 µM | Cell survival: As2O3 + cations vs As2O3 [7]: Not significant | Cell survival: cations vs control [7]: Not significant

O=S(=O)([O-])[O-].[Mn+2] [MnSO4]
H2O2 Production: As2O3 + cations vs As2O3 [4]: 0.25 µM | Cell survival: As2O3 + cations vs As2O3 [7]: no real effect; also recorded: Not significant

[Cl-].[Cl-].[Zn+2] [ZnCl2]
H2O2 Production: As2O3 + cations vs As2O3 [4]: Not significant | Cell survival: As2O3 + cations vs As2O3 [7]: no significant and reproducible effect; also recorded: Not significant | Cell survival: cations vs control [7]: Not significant

O=S(=O)([O-])[O-].[Zn+2] [ZnSO4]
Cell survival: As2O3 + cations vs As2O3 [7]: no significant and reproducible effect; also recorded: Not significant

Arsenic Trioxide [As2O3]
Cell proliferation in the presence of mitogen [1]: completely inhibits | Inhibition of caspase-1 and the innate immune response [8]: potent inhibitors | Effect on GSH production vs control [3]: significantly increases | Effect on H2O2 production vs control [9]: significantly increased | Effect on the production of H2O2 [4]: not significant, but it increases at 5 μM | Survival of MRL/lpr mice [10]: significantly prolonged | Effect on GSH production vs control [11]: significantly increased | Effect on A20 cells viability vs control ([5]; As2O3 at 1 μM, GSH experiment, test 1): significantly reduced | Effect on A20 viability vs control ([5]; As2O3 at 1 μM, test 1): reduced | Effect on A20 viability vs control ([5]; As2O3 at 1 μM, test 2): significantly reduced | Treg and T17 balance [12]: improves | Number of mice at the end (live mice) ([6]; Allogeneic + As2O3 2.5 μg/g i.p. 5 times a week for 5 weeks, 10 mice at the beginning): 9 | Ear thickness (vasculitis) ([6]; Allogeneic + As2O3 2.5 μg/g vs allogeneic): reduced | Number of mice with alopecia [6, 13]: 3 | Percentage of mice with alopecia [6, 13]: 33% | Number of mice at the end (live mice) ([6]; Allogeneic + As2O3 5 μg/g i.p. 5 times a week for 5 weeks, 7 mice at the beginning): 5 | Ear thickness (vasculitis) ([6]; Allogeneic + As2O3 5 μg/g vs allogeneic): decreased even more until reaching the same values as the ones of the syngeneic group | Number of mice with alopecia [6, 14]: 1 | Percentage of mice with alopecia [6, 14]: 20%

— patent US20220226372A1 (priority 2019, published 2022)
